Measurements taken from publication PMC9325670, “Limited nutrient availability in the tumor microenvironment renders pancreatic tumors sensitive to allosteric IDH1 inhibitors” (Nature Cancer, 2022).

Target: T1, wild-type isocitrate dehydrogenase 1 (wtIDH1) (Homo sapiens, UniProt O75874)
T1 construct: gene IDH1; human recombinant IDH1
Assay: cell-free fluorometric NADPH formation assay at […] Mg2+
Format: biochemical

T1 sequence (O75874 2-414): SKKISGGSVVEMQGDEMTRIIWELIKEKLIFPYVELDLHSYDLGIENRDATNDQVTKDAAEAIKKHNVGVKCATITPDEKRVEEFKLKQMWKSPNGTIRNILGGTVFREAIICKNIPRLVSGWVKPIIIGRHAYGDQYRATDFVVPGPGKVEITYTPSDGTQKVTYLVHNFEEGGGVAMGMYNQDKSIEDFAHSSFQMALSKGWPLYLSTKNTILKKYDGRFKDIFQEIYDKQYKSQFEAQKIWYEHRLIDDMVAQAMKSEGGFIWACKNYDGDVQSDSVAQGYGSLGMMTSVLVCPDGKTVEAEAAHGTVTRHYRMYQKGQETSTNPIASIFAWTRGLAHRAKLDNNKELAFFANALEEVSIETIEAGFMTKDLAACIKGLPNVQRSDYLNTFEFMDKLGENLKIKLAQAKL

IC50: 91.4 nM
SMILES: CC1(C)CN(C(=O)c2cn[nH]c2)Cc2c(C(=O)Nc3ccc(F)cc3)nn(Cc3ccc(C(F)(F)F)cc3)c21 [FSM-3-002]
